Paper PMC6095626, “Screening of the Pathogen Box for inhibitors with dual efficacy against Giardia lamblia and Cryptosporidium parvum” (PLoS Neglected Tropical Diseases, 2018)
Where two headings read alike, the source gives them in different places. Marks after values point to notes of the source that are not given here.

What was measured:
[1] = system: G. lamblia trophozoites (luciferase expressing, WBC6); assay: microbe, parasite or virus in culture; assay type: cell-based, Giardia lamblia; settings: for Giardia (16 uM) Mean % inhibition: initial Pathogen Box screen, single concentration 16 µM, inhibition compared to DMSO wells; for EC50: read-out: G. lamblia EC50; for inhibition at 16 µM: read-out: Giardia (16 uM) Mean % inhibition
In short: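 Luciferase-expressing WBC6 trophozoites plated at 250,000 cells/mL, compounds added 1:1, incubated anaerobically (GasPak bags) at 37 °C for 24 h; viability read by bioluminescence, with duplicate plates counted on a MOXI Z cell counter. Metronidazole control serially diluted 1:2 from 40 μM.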

[2] = system: C. parvum (UGA1 Nluc expressing strain in HCT-8 cells); assay: microbe, parasite or virus in culture; assay type: cell-based, Cryptosporidium parvum; settings: for EC50: read-out: C. parvum EC50; for Crypto (10 uM) Mean % inhibition: initial Pathogen Box screen, single concentration 10 µM, inhibition compared to DMSO wells; for inhibition at 10 µM: Cryptosporidium parvum, HCT-8, read-out: Crypto (10 uM) Mean % inhibition
In short: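 HCT-8 monolayers grown 48 h to 90–100% confluence, treated with compound at 10 μM or serial dilutions, then infected with bleach-treated UGA1 Nluc C. parvum oocysts.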

[3] = system: HepG2 cells; assay: Cytotoxicity against HepG2 cells, AlamarBlue viability assay, 48 hours; assay type: cell-based, human; settings: read-out: HepG2 CC50 (this study)
From the text: (§1) Mammalian cell cytotoxicity assay data performed on HepG2 (human hepatocellular carcinoma) cells and described as CC20 or CC50 values are provided in supporting documentation that accompanied the Pathogen Box for approximately three quarters of the 400 compounds. However, no details of the assay conditions or parameters were provided. In this study, selected compounds were further tested for cytotoxicity against HepG2 cells as previously described. Briefly, cells were exposed to two-fold serial dilutions of compounds for 48 hours and cytotoxicity was assessed using the AlamarBlue® viability assay (Thermo Fisher Scientific, Waltham, MA). Each dilution was assayed in quadruplicate and concentrations causing 50% growth inhibition (CC50) were calculated by non-linear regression using GraphPad Prism 7 software (GraphPad Software, San Diego, CA).

[4] = system: HepG2 cells; settings: cited from earlier work; for CC50: read-out: HepG2 CC50 (literature values)
[5] = system: G. lamblia; settings: read-out: G. lamblia EC50 (literature), cited from earlier work
[6] = system: C. parvum; settings: cited from earlier work
[7] = Cytotoxicity against HepG2 cells, AlamarBlue viability assay, 48 hours; assay type: cell-based, human; settings: human, HepG2 cells, read-out: HepG2 CC50 (this study)
From the text: as §1

[8] = luciferase expressing G. lamblia trophozoites, 24 hours, D-luciferin bioluminescence read-out
[9] = Nluc C. parvum in HCT-8 cells, 48 hours
[10] = ref Pathogen_Box_Activity_Biological_Data_ Structure & Smiles (https://www.pathogenbox.org/about-pathogen-box/composition)

SMILES	Giardia (16 uM) Mean % inhibition [1]	EC50 [1, 8]	Crypto (10 uM) Mean % inhibition [2]	CC50 [3]	CC50 [4, 10]	further results
CC(=O)OCC1OC([S-])C(OC(C)=O)C(OC(C)=O)C1OC(C)=O.CCP(CC)CC.[Au+] (stereo not shown) [MMV688978, Auranofin, reference compound]	98%	3.74 ± 0.46 µM	93%	0.5 µM	–	EC50 [2, 9]: 3.34 ± 2.7 µM; CC50 [4]: 4.5 µM; EC50 ([5]; WB strain (48h)): 4 to 6 µM; EC50 ([6]; IOWA strain (48h), read-out: C. parvum EC50 (literature)): 2 µM
O=C(Nc1cccnc1)c1c(O)c2cccc3c2n(c1=O)CC3 [MMV676395]	98%	1.57 ± 0.2 µM	85%	> 40 µM	> 100 µM	C. parvum EC50 [2, 9]: not potent
O=C(Nc1ccc(N2CCNCC2)cc1)c1ccn2ncc(-c3cccc(Cl)c3)c2n1 [MMV022478]	98%	2.41 ± 0.12 µM	X* (Mean or standard deviation are negative but not significantly different from the control to be a growth promoter)	> 40 µM	> 10 µM	–
O=[N+]([O-])c1cn2c(n1)OC[C@@H](OCc1ccc(OC(F)(F)F)cc1)C2 [MMV688755]	99%	1.57 ± 0.38 µM	17%	> 40 µM	> 50 µM	–
CC1CS(=O)(=O)CCN1/N=C/c1ccc([N+](=O)[O-])o1 (stereo not shown) [MMV001499, Nifurtimox, reference compound]	–	–	–	–	–	EC50 ([1]; Giardia duodenalis, 24 h): 0.64 ± 0.12 µM; inhibition at 16 µM ([1]; Giardia duodenalis): 97%; inhibition at 10 µM [2]: < 0%; CC50 at 48 h [7]: > 40 µM; HepG2 CC20 (literature values) ([4]; CC20 (footnote ^), ref Pathogen_Box_Activity_Biological_Data_ Structure & Smiles (https://www.pathogenbox.org/about-pathogen-box/composition)): >80 ^* ^^ μM; EC50 ([5]; reference strain WB (48h)): 0.37 µM
COc1ccc2nccc(NC(=O)C3CCN(CCc4ccc(Cl)cc4)CC3)c2n1 [MMV688844]	98%	2.3 ± 0.43 µM	X* (Mean or standard deviation are negative but not significantly different from the control to be a growth promoter)	> 40 µM	> 50 µM	–
CCOc1ccc2cc(-c3nn(CC4CCN(C)CC4)c4ncnc(N)c34)ccc2c1 [MMV688854, reference compound]	9%	–	–	–	–	C. parvum cell growth inhibition in the initial screen ([2]; 10 μM, 48 hours): 79%; EC50 ([6]; same strain of Nluc C. parvum, read-out: C. parvum EC50 (previously shown)): 2.7 µM
OCCc1ccc(Nc2nccc(-c3nnc4ccccn34)n2)cc1 [MMV028694]	99%	3.88 ± 1.27 µM	85%	15.9 µM	8.1 µM	EC50 [2, 9]: 1.56 ± 0.5 µM
CC(C)(C)c1cnc(NC(=O)c2ccccc2O)s1 [MMV495543]	97%	2.77 ± 0.21 µM	51%	> 40 µM	47.6 µM	–
CN1CCN(CCCOc2ncc(Nc3ncc(-c4ccc(C(F)(F)F)c(F)c4)nc3C(N)=O)cn2)CC1 [MMV687812]	98%	1.25 ± 0.12 µM	66%	5.33 µM	3.9 µM	–
C[C@]1(COc2ccc(N3CCC(Oc4ccc(OC(F)(F)F)cc4)CC3)cc2)Cn2cc([N+](=O)[O-])nc2O1 [MMV688262, Delamanid, reference compound]	–	–	–	–	72.5 µM	EC50 ([1]; Giardia duodenalis, 24 h): 0.55 ± 0.04 µM; inhibition at 16 µM ([1]; Giardia duodenalis): 97%; inhibition at 10 µM [2]: < 0%; CC50 at 48 h [7]: > 40 µM
CCCSc1ccc2nc(NC(=O)OC)[nH]c2c1 [albendazole, Albendazole, reference compound]	–	–	–	–	–	EC50 ([1]; Giardia duodenalis, 24 h): 0.41 µM; EC50 ([5]; reference strain WB (48h)): 0.23 µM
